Test results from patent publication US20040038855A1 (priority 1999, published 2004).
Structures can show the parent of a compound that is named as a salt. Where two headings read alike, the source gives them in different places.

Columns and labels:
human MCH1 receptor [1] = biological target: T1, human MCH1 receptor (Homo sapiens, UniProt Q99705); assay: Intracellular calcium response to MCH in COS-7 cells transfected with MCH1 (fluo-3, FLIPR): antagonist potency; assay type: cell-based; set-up: expressed in transfected cells; host or cells: COS-7; details: read-out: Kb (nM) hMCH1
Text: MCH1 antagonist compounds were identified by their ability to inhibit the MCH-elicited response. […]. From the IC50 values, the antagonist potency (Kb)was derived using the Cheng-Prussof correction (Lazareno and Birdsall, 1993). […]

rat 5HT2C receptor = biological target: T2, rat 5HT2C receptor (Rattus norvegicus, UniProt P08909); assay: Binding affinity at the rat 5HT2C receptor; details: read-out: r5HT2C Ki
T2 construct: expressed in transfected cells
T2 sequence (P08909 33-460): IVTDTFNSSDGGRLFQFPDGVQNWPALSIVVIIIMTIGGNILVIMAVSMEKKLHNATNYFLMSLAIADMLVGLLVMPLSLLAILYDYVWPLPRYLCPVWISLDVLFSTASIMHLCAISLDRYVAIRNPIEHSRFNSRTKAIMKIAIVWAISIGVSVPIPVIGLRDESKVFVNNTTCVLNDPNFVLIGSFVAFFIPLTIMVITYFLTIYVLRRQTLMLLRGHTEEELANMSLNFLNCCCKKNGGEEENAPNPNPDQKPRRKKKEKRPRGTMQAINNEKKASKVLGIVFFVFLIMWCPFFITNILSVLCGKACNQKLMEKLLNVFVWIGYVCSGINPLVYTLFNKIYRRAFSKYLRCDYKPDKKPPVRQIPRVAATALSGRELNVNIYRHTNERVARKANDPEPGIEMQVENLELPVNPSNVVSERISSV
Text: (§1) The design of such compounds can be optimized by determining their binding affinity at the recombinant MCH1, NPY1, NPY2, Gal1, Gal2, Gal3, and 5HT2C receptors. The methods to obtain the cDNA of the receptor, express said receptors in heterologous systems, and carry out assays to determine binding affinity are described in the following publications: human NPY1 (Larhammar et al., 1992), human NPY5 (U.S. Pat. No. 5,602,024, the disclosure of which is hereby incorporated by reference in its entirety into this application), human Gall (Habert-Ortoli et al., 1994), human Gal2 (Smith et al., 1997), human Gal3 (Smith et al., 1998), and rat 5HT2C (Julius et al., 1988). Additionally, the compounds would optimally not bind at the following receptors due to possible side effects: human H1 histamine and human H2 histamine receptors; human alpha-1A adrenergic, human alpha-1D adrenergic, human alpha-2A adrenergic, human alpha-2B adrenergic, and human alpha-2C adrenergic receptors; human dopamine D1, D2, D3, D4, and D5 receptors; the β-adrenoceptor; and the human 5HT1A, human 5HT1B, human 5HT1D, human 5HT1E, human 5HT1F, human 5HT2A, rat 5HT2C, human 5HT4, human 5HT6, and human 5HT7 receptors.
Other 5HT Receptors: Other serotonin receptor binding assays were performed according to published methods: rat 5HT2C receptor (Julius et al., 1988); and 5HT6 (Monsma, et al., 1993). The binding assays using the 5HT4 receptor were performed according to the procedures described in U.S. Pat. No. 5,766,879, the disclosure of which is hereby incorporated by reference in its entirety into this application.

human MCH1 receptor [2] = biological target: T1, human MCH1 receptor; assay: Competition binding, membrane preparations of A293 cells expressing the human MCH1 receptor, [3H] Compound 10 as radioligand; set-up: expressed in transfected cells; details: Table 3b; A293 cell membranes, [3H] Compound 10; read-out: hMCH1* Ki
Experimental: TRITIATED METHYL (4S)-3-{[(3-{4-[3-(ACETYLAMINO)PHENYL]-1-[…]}PROPYL)AMINO]CARBONYL}-4-(3,4-DIFLUOROPHENYL)-6-(METHOXYMETHYL)-2-OXO-1,2,3,4-TETRAHYDRO-5-PYRIMIDINECARBOXYLATE ([^3H] COMPOUND 10): This radiochemical synthesis was carried out by Amersham Pharmacia Biotech, Cardiff, Wales. A methanolic solution of methyl (4S)-3-({[3-(4-[3-(acetylamino)phenyl]-3,6-dihydro-1(2H)pyridinyl)propyl]amino}carbonyl)-4-(3,4-difluorophenyl)-6-(methoxymethyl)-2-oxo-1,2,3,4-tetrahydro-5-pyrimidinecarboxylate was exposed to tritium gas at 1 atmosphere pressure in the presence of 5% palladium on carbon with stirring overnight to give the tritiated methyl (4S)-3-{[(3-{4-[3-(acetylamino)phenyl]-1-piperidinyl}propyl)amino]carbonyl}-4-(3,4-difluorophenyl)-6-(methoxymethyl)-2-oxo-1,2,3,4-tetrahydro-5-pyrimidinecarboxylate ((+)-isomer) After purification by reverse phase HPLC (Hypersil ODS, 4.6×100 mm, methanol:H2O:Et3N 10:90:1 to 100:0:1 in 15 min at 1.0 mL/min, with radiochemical and UV detection), this product was used as a radioligand in the MCH1 binding assays. The same procedure was carried out with H2 gas in place of ^3H2 to afford the non-radioactive version of Compound 10.

human GALR2 receptor = biological target: T3, human GALR2 receptor (Homo sapiens, UniProt O43603); assay: Binding affinity at the human GALR2 receptor; details: read-out: hGALR2 Ki
T3 construct: expressed in transfected cells
T3 sequence (O43603 1-387): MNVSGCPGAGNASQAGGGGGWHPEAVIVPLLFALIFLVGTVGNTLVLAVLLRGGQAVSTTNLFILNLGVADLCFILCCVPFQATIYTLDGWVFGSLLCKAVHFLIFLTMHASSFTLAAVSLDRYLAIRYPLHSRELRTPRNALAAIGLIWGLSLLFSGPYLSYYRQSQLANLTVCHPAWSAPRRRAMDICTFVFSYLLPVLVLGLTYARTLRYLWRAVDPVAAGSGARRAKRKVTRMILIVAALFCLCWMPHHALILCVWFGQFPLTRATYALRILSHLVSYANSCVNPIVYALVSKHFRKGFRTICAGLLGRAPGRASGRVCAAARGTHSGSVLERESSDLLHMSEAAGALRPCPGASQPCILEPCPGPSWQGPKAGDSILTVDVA
Text: as §1

human GALR3 receptor = biological target: T4, human GALR3 receptor (Homo sapiens, UniProt O60755); assay: Binding affinity at the human GALR3 receptor; details: read-out: hGALR3 Ki
T4 construct: expressed in transfected cells
T4 sequence (O60755 1-368): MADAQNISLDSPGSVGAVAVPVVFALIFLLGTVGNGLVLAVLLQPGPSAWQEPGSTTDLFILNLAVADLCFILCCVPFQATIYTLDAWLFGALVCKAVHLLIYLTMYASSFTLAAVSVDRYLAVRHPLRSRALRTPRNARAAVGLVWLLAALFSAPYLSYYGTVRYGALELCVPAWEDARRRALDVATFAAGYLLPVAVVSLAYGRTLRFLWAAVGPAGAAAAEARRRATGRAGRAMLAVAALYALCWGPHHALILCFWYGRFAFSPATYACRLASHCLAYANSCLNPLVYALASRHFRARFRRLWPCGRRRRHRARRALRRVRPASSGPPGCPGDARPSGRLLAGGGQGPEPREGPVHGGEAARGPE
Text: as §1

human GALR1 receptor = biological target: T5, human GALR1 receptor (Homo sapiens, UniProt P47211); assay: Binding affinity at the human GALR1 receptor; details: read-out: hGALR1 Ki
T5 construct: expressed in transfected cells
T5 sequence (P47211 1-349): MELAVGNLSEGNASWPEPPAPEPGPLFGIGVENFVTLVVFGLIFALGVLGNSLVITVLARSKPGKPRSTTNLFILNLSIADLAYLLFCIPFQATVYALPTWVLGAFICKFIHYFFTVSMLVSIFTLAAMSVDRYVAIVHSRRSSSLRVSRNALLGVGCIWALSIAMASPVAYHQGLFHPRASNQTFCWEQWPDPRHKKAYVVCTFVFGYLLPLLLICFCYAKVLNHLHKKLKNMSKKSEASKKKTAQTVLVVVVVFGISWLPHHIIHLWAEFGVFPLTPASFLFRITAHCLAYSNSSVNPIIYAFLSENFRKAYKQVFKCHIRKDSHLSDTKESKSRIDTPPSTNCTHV
Text: as §1

T1 sequence (Q99705 whole entry): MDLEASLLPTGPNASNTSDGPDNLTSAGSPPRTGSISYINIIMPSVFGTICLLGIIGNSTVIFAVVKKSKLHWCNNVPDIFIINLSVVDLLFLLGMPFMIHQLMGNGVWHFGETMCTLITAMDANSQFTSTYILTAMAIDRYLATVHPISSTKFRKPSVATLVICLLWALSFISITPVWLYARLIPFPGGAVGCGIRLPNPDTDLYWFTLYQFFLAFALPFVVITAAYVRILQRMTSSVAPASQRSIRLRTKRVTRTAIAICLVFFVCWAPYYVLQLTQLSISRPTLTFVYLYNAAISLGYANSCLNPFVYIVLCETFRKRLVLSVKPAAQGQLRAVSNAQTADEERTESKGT

In the case of `O=C(CCCN1CCC(NC(=O)c2ccccc2)CC1)c1ccc(Cl)cc1` (as salt: HCl) [Example 28, [3-(4-CHLOROBENZOYL)]PROPYL-4-BENZAMIDOPIPERIDINE], the melting point is reported as 243 to 244 °C.

For `COCC1=C(C(=O)OC)C(c2ccc(F)c(F)c2)N(C(=O)NCCCN2CCC(OC(C)=O)(c3ccccc3)CC2)C(=O)N1` (centres unmarked) (as salt: hydrochloride) [Example 3, (1)-1,2,3,6-TETRAHYDRO-1-{N-[3-(4-O-ACETYL)-4-PHENYLPIPERIDIN-1-YL]PROPYL}CARBOXAMIDO-5-METHOXYCARBONYL-4-METHOXYMETHYL-6-(3,4-DIFLUOROPHENYL)-2-OXOPYRIMIDINE], the melting point was 82 to 84 °C.

In the case of `COC(=O)C1=C(C)NC(=O)N(C(=O)NCCCN2CCC3(CC2)OCc2ccccc23)C1c1ccc(F)c(F)c1` (centres unmarked) (as salt: hydrochloride) [Example 20, 4-(3,4-DIFLUORPHENYL)-6-METHYL-2-OXO-3-{[3-(4-SPIRO[ISOBENZOFURAN-1(3H),4′-PIPERIDINE]PROPYL}-1,2,3,4-TETRAHYDROPYRIMIDINE-5-CARBOXYLIC ACID METHYL ESTER], the melting point is reported as 178 to 182 °C.

With `COC(=O)C1=C(C)NC(=O)N(C(=O)NCCCN2CCN(c3ccccc3C)CC2)C1c1ccc(F)c(F)c1` (centres unmarked) (as salt: hydrochloride) [Example 35, 1,2,3,6-TETRAHYDRO-1{N-[4-(2′-METHYL-PHENYL)PIPERAZIN-1-YL]-PROPYL}-CARBOXAMIDO-4-METHYL-6-(3,4-DIFLUOROPHENYL)-2-OXO-PYRIMIDINE] the melting point was 66 to 71 °C.

`COC(=O)C1=C(C)NC(=O)N(C(=O)NCCCN2CCC3(CCc4ccccc43)CC2)C1c1ccc2nonc2c1` (racemic) (as salt: hydrochloride) [Example 21] gave a melting point of 155 to 157 °C.

With `COC(=O)C1=C(C)NC(=O)N(C(=O)NCCCN2CCC3(CC2)OCc2ccccc23)C1c1ccc2nonc2c1` (single isomer, unassigned) (as salt: hydrochloride) [Example 18] the melting point was 180 to 182 °C.

For `COC(=O)C1=C(C)NC(=O)N(C(=O)NCCCN2CCN(c3ccccc3[N+](=O)[O-])C[C@@H]2C)C1c1ccc(F)c(F)c1` (single isomer, unassigned; (+)) (as salt: HCl) [Example 34], the melting point was 150 to 153 °C.

`COCC1=C(C(=O)OC)C(c2ccc(F)c(F)c2)N(C(=O)NCCCN2CCC(c3cccc(OC)c3)CC2)C(=O)N1` (single isomer, unassigned; (+)) [Example 9, (+)-1,2,3,6-TETRAHYDRO-1-N-[4-(3-METHOXY)-PHENYL}-PIPERIDIN-1-YL]-PROPYL-CARBOXAMIDO-4-METHOXYMETHYL-6-(3,4-DIFLUOROPHENYL)-2-OXOPYRIMIDINE-5-CARBOXYLIC ACID METHYL ESTER] gave a melting point of 80 to 84 °C and a Kb (human MCH1 receptor [1]) of 35 nM.

With `COCC1=C(C(=O)OC)C(c2ccc(F)c(F)c2)N(C(=O)NCCCN2CCC(O)(c3ncccc3C)CC2)C(=O)N1` (single isomer, unassigned; (+)) [Example 16, (+)-1,2,3,6-TETRAHYDRO-1-{N-[4-HYDROXY-4-(2-PYRIDYL)-PIPERIDIN-1-YL]PROPYL}CARBOXAMIDO-4-METHOXYMETHYL-6-(3,4-DIFLUOROPHENYL)-2-OXOPYRIMIDINE-5-CARBOXYLIC ACID METHYL ESTER] the melting point was 132 to 135 °C and the Kb (human MCH1 receptor [1]) was 329 nM.

`COCC1=C(C(=O)OC)C(c2ccc(F)c(F)c2)N(C(=O)NCCCN2CC=C(c3cccc(NC(C)=O)c3)CC2)C(=O)N1` (centres unmarked) [Example 2, METHYL 3-[(3-4-[3-(ACETYLAMINO)PHENYL]-1,2,3,6-TETRAHYDRO-1-PYR-IDINYLPROPYL)AMINO]CARBONYL-4-(3,4-DIFLUOROPHENYL)-6-(METHOXY-METHYL)-2-OXO-1,2,3,4-TETRAHYDRO-5-PYRIMIDINECARBOXYLATE] gave a Ki (rat 5HT2C receptor; Table 3a) of 39.8 µM, a Ki (rat 5HT2C receptor; Table 3b) of 39.8 µM and a Ki (human MCH1 receptor [2]) of 0.049 µM. The Ki (human GALR2 receptor; Table 3a) was greater than 50 µM, the Ki (human GALR2 receptor; Table 3b) was greater than 50 µM and the Ki (human GALR3 receptor; Table 3a) was greater than 50 µM. For the same compound, the Ki (human GALR3 receptor; Table 3b) was greater than 50 µM, the Ki (human GALR1 receptor; Table 3a) was greater than 50 µM and the Ki (human GALR1 receptor; Table 3b) was greater than 50 µM.

Work on `O=C(NC1CCN(CCC2CCc3ccccc3C2=O)CC1)c1ccccc1` (centres unmarked) [Example 5] yielded a melting point of 158 to 159 °C.

`COC(=O)C1=C(C)NC(=O)N(C(=O)NCCCN2CCC3(CC2)C(=O)CCc2ccccc23)C1c1ccc(F)c(F)c1` (centres unmarked) [Example 24] gave a Kb (human MCH1 receptor [1]) of 102 nM.

With `COC(=O)C1=C(C)NC(=O)N(C(=O)NCCCN2CCC3(CCc4ccccc43)CC2)C1c1ccc(F)c(F)c1` (centres unmarked) [Example 32] the melting point was 150 to 153 °C.
